Source: publication PMC3435281 (PLoS ONE, 2012)
pIC50: −log10 of the molar value.

Legend:
[1] = target: AHR^b isoform (C57BL/6J hepatic cytosol) (Mus musculus, UniProt P30561); settings: read-out: IC50, competitive binding; C57BL/6J cytosol, 1 nM radioligand 125IBr2N3DpD
[2] = target: T1, rat AHR^b (5L) (Rattus norvegicus, UniProt P41738); experiment: EROD activity in rat hepatoma 5L cells; assay type: cell-based; settings: 5L cell line, 40 hours
T1 construct: endogenous in cells; host or cells: rat hepatoma 5L cells
T1 sequence (P41738 10-853): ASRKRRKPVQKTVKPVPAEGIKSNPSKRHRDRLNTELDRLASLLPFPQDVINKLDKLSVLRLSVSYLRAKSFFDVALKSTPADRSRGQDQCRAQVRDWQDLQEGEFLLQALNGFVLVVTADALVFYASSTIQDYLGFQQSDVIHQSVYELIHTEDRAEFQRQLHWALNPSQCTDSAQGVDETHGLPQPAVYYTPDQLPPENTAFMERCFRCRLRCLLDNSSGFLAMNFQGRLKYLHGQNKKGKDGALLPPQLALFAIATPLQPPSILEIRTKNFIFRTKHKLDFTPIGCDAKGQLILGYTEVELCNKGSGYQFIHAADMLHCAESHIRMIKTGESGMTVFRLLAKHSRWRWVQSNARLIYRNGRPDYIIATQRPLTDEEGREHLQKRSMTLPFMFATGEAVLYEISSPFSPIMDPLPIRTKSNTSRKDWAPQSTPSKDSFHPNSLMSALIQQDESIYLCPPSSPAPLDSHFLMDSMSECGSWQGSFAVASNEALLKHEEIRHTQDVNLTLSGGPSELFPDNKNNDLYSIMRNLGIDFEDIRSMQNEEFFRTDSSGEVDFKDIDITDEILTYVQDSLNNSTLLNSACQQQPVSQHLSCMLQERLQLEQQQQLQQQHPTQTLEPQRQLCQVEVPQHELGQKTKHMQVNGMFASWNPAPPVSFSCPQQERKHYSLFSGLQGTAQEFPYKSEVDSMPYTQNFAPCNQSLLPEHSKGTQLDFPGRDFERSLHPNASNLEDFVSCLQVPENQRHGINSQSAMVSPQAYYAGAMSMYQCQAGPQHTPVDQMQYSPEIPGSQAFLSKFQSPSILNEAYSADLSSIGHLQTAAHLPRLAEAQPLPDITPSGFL
Description: (§1) We utilized the wild type rat hepatoma cell line, 5L, which harbors the high affinity AHR isoform, and our newly created AHR^d-15 cell line. […] Groups of control mice were given corn oil alone or BNF at the concentration of 120 mg/kg.
(§2) Figure 3 In Vitro dose response curves. A. Rat hepatoma cell lines bearing the murine AHR^d (AHR^d-15) or the rat AHR^b (5L) were incubated with increasing doses of TCDD in 96-well plates. After 40 hours, EROD activity was performed from whole cell lysate. (n = 3). […] (n = 3). C. Same assay as in A, with increasing doses of BNF. (n = 2). […] Following 48 hours, hepatic microsomal proteins were isolated and used for the assessment of EROD activity. Animals were treated in groups of 4. Error bars: S.D.
(§3) High-throughput analysis of EROD activity was assayed by adapting a protocol that was described elsewhere, [63]. Briefly, cells were seeded into 96-well plates at ∼ 60% density and treated with the test compounds for 36 hours. The cells were washed with PBS and lysed with 30 µL water and a cycle of freeze-thaw. To each well, 150 µL of 50 mM Hepes buffer containing 26.7 µM dicumarol and 13.3 µM ethoxyresorufin were added. The samples were incubated at 30°C for 20 minutes, and 50 µL of 0.5 mM β-NADPH were added to initiate the reaction. Fluorescence of the resorufin product was detected using the 544 nm excitation and 590 nm emission wavelength filter set.

[3] = target: T2, murine AHR^d (Mus musculus, UniProt P30561, A375V); experiment: EROD activity in AHR^d-15 cells (rat hepatoma BP8 stably transfected with AHR^d)
T2 sequence (P30561 10-848 A375V): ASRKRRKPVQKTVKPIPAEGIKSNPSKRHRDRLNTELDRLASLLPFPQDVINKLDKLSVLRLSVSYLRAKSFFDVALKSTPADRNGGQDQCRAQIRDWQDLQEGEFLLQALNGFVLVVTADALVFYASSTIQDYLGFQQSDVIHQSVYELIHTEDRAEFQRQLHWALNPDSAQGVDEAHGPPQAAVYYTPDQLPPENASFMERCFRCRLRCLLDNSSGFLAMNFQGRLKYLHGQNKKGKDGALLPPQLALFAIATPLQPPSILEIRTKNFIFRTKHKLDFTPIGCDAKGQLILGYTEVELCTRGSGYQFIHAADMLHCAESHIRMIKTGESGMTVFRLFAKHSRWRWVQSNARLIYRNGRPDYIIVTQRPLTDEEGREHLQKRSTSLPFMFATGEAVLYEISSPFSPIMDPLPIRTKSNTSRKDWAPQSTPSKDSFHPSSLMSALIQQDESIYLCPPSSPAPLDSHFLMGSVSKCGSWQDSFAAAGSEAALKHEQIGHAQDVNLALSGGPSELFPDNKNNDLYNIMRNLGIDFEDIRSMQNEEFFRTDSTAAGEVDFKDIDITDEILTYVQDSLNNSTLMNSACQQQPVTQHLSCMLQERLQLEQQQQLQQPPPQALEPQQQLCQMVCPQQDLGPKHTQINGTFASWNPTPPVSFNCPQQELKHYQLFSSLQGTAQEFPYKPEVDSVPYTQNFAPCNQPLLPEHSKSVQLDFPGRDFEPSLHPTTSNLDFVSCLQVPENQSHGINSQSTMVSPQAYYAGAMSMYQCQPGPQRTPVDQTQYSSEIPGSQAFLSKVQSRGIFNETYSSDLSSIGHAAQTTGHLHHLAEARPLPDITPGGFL
Description: The 100 “hit compounds” from the primary screen were subsequently screened for their capacity to activate the low-affinity murine AHR^d receptor isoform using the activity of the endogenous Cyp1a1 gene as a readout. To this end, we established a hepatoma cell line that expresses the AHR^d receptor isoform derived from the DBA/2J mouse. An AHR^d-expressing cell line was generated by stably transfecting the AHR^d cDNA into the rat hepatoma AHR-deficient cell line, BP8 [15]. After stable selection with G418, a subclone (AHR^d-15) was analyzed for receptor expression and function. […] To confirm that the AHR^d-15 clone expressed a functional low affinity AHR^d isoform, we examined the receptor-mediated response to the prototype agonists, TCDD and β-naphthoflavone (BNF).
To test the ability of the 100 AHR inducers to activate the AHR^d-15 cells, they were treated with each of the compounds at the dose of 1 µM, for 36 hours in 96-well plates.
as §2
The open reading frame of the AHR^d gene (PL2047) was amplified by PCR using oligos OL5127 (5′-[…]-3′) and OL5128 (5′-[…]-3′). The product was ligated into the pTARGET™ mammalian expression vector (Promega, Madison, WI). The resulting plasmid was transfected into the AHR-deficient cell line, BP8 [15], using Effectene transfection reagent (Qiagen Inc., Valencia, CA). Stable integrants were selected with 6 mg/ml of G418 for 2 weeks, beginning at 48-hours post-transfection. Clones derived from single cells were screened for their response to nanomolar doses of dioxin or micromolar doses of BNF, as measured by ethoxyresorufin O-deethylase (EROD) activity. […] The validated cell line used in these studies was designated line AHR^d-15.
as §3

[4] = tested on: DBA/2J mice (AHR^d); experiment: In vivo hepatic microsomal EROD activity, DBA/2J; parameters: species or system mouse; settings: oral 120 mg/kg, 48 hours
Description: as §1, §2
Hepatic microsomes were prepared by homogenizing 0.5 g of liver tissue in 5 mL of MENG buffer (25 mM buffer sodium morpholinopropane sulfonate buffer (pH 7.5) containing 0.025% (w/v) NaN3, 1 mM EGTA and 10% (v/v) glycerol). The homogenate was subjected to centrifugation at 10,000×g for 20 minutes, followed by centrifugation of the supernatant for 1 hour at 100,000×g and 4°C. The pellet was dissolved in 15 mM Tris-HCl buffer containing 250 mM sucrose (pH 8.0) and aliquots were stored at −80°C. Protein concentration was determined using the Bicinchoninic Acid Protein Assay Reagent (Pierce Biotechnology, Rockford, IL). […]

[5] = tested on: AHR (101L-hepatoma cells); experiment: Antagonism of DRE-luciferase activation by CH223191; assay type: cell-based, human

Sequence of AHR^b isoform (C57BL/6J hepatic cytosol) (P30561 10-805): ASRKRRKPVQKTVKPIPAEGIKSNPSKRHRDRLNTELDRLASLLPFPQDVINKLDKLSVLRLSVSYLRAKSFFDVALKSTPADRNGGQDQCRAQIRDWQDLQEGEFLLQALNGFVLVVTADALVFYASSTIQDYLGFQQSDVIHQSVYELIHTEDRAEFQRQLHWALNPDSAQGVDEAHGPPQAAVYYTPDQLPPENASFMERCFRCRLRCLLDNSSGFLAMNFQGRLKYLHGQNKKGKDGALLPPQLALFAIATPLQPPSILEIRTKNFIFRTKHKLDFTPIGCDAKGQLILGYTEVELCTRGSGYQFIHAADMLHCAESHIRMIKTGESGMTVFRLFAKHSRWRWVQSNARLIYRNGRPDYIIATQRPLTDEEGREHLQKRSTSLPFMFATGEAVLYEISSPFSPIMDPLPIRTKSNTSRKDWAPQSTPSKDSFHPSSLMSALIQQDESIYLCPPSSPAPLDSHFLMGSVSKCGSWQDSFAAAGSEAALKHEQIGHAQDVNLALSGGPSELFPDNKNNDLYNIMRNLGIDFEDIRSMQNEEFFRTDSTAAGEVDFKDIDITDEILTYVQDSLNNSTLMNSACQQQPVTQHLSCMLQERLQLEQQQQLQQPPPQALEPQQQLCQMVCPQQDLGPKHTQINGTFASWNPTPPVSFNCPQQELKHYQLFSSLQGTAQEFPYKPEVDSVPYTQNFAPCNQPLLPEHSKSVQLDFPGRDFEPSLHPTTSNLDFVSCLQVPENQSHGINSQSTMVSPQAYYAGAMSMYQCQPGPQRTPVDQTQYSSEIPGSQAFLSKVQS

## c1ccc2cc3c(ccc4ccccc43)cc2c1 [1,2-Benzanthracene]
[1]
  pIC50: 7.86

## O=c1cc(-c2ccccc2)oc2ccc3ccccc3c12 [BNF, β-naphthoflavone]
[2]
  EROD response: strong response
[3]; AHR^d-15 cell line, 40 hours
  EROD response: no response
[3]; AHR^d-15 cells, doses as high as 10 µM, 36 hours
  AHR-mediated response (EROD activity): inactive
[4]
  hepatic EROD activity: dramatically decreased in vivo activity

## Cc1ccccc1N=Nc1ccc(NC(=O)c2ccnn2C)c(C)c1 [CH223191]
[5]; antagonist 10 µM, titration of SU5416, 4 hours
  inhibition of SU5416-induced DRE activation: only a small amount of inhibition
[5]; titration of antagonist with 1 nM TCDD, 4 hours
  inhibition of TCDD-induced DRE activation: inhibited
[5]; titration of antagonist with 100 nM SU5416, 4 hours
  inhibition of SU5416-induced DRE activation: minimal inhibition
